Patent US20230017786A1, “DEXTR[…] A DISEASE-MODIFYING TREATMENT FOR NEUROPSYCHIATRIC DISORDERS AND DISEASES” (priority 2020, published 2023)
Several values for one entry are separate records, joined by “and”; a condition that tells them apart may be missing. Equal values may be shown once. Where a name gives a salt, the structure may show the parent alone.

Columns and labels:
[1] = biological target: T1, human NMDA receptor GluN1-GluN2A (Homo sapiens, UniProt Q05586+Q12879); experiment: FLIPR calcium assay, test item effect on L-glutamate CRC, GluN1-GluN2A-CHO; type: cell-based
T1 construct: expressed in transfected cells; host or cells: CHO
T1 sequence (Q12879 23-1464, other chains not shown): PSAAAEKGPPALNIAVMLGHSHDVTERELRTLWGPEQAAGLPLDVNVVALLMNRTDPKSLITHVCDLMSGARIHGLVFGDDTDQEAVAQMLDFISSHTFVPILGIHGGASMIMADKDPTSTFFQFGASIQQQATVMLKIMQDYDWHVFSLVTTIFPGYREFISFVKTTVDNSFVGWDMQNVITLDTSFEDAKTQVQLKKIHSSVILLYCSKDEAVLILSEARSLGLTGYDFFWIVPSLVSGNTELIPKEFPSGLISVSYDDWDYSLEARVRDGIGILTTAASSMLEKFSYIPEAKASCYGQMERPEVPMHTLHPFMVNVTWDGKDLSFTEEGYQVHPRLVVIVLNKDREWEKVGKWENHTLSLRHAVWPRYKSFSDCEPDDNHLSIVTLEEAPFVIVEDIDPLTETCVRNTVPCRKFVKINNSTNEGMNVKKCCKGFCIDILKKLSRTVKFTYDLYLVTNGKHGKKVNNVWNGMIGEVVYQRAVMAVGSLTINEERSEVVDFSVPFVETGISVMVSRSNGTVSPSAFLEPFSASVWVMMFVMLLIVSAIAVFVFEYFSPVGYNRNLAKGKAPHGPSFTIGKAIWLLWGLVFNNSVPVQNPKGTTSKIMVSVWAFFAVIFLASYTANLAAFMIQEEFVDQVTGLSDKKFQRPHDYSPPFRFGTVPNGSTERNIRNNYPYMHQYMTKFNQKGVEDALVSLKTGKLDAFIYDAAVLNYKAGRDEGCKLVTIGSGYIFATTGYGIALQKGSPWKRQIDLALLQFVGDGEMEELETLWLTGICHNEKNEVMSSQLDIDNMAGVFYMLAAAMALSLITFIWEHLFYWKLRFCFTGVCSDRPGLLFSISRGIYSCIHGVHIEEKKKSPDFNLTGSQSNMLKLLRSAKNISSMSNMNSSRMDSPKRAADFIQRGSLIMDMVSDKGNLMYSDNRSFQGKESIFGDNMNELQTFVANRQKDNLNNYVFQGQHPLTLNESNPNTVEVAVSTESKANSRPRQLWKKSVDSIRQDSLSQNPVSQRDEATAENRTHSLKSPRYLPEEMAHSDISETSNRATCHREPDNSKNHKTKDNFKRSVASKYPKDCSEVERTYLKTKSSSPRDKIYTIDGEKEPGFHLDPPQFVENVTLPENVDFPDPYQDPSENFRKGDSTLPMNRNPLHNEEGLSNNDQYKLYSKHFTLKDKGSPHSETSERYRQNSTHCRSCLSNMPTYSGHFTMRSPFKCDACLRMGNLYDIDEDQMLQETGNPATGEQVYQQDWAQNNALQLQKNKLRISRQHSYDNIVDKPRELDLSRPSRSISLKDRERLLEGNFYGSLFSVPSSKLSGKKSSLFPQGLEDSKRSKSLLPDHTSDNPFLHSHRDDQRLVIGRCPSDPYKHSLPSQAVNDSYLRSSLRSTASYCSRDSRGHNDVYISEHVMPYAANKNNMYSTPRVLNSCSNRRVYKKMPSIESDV
Description: (§1) FLIPR determination of intracellular calcium level was used as a read-out for NMDAR activation.
(§2) 400× compound plate was stored at −20° C. until FLIPR experimental day.
(§3) 4× compound plate was generated from 400× compound plate by addition of up to 30 μl/well of compound buffer on FLIPR experimental day.
(§4) A FLIPR system was used to monitor intracellular calcium level in NMDAR cell lines, pre-loaded for 1 hour with Fluo-4, and then washed with assay buffer.
(§5) Y=Bottom+(Top−Bottom)/(1+10^((LogEC50−Log[A])*HillSlope))

[2] = test system: NMDA receptors of cultured rat cortical neurons; details: Mealing et al., 1999; cited from earlier work
[3] = test system: diheteromeric human recombinant NMDAR containing GluN1 plus GluN2A, GluN2B, GluN2C or GluN2D; experiment: FLIPR calcium assay, statements for all four NMDAR subtypes together; type: cell-based; details: 6 test item concentrations
Description: An operational equation for allosteric modulators (Leach K, Sexton P M and Christopoulos A, Allosteric GPCR modulators: taking advantage of permissive receptor pharmacology, Trends Pharmacol. Sci. 28: 382-389, 2007; Kenakin T P, Overview of receptor interaction of agonists and antagonists, Curr. Protoc. Pharmacol. Chapter 4: Unit 4.1, 2008, Kenakin T P, Biased signalling and allosteric machines: new vistas and challenges for drug discovery, Br. J. Pharmacol. 165: 1659-1669, 2012) was created in Prism 8 (GraphPad) software to estimate KB and a parameters for every test item, with the assumption that, as a pore blocker, every test item would be able to produce a compete blockade of agonist response, at sufficiently high concentration: […]

[4] = biological target: T2, human GluN1-GluN2C NMDA receptor (Homo sapiens, UniProt Q05586+Q14957); experiment: Manual patch clamp on-/off-rate assay, hGluN1/hGluN2C-CHO cells; details: for % Current (mean ± SEM): 10/10 μM L-glutamate/glycine induced current, hGluN1/hGluN2C-CHO; for Tau-off: continuous 10/10 μM L-glutamate/glycine; for I2 (% current): current after 50 seconds removal of test item; for Tau-on: 10/10 μM L-glutamate/glycine; for % block of 10/10 μM L-glutamate/glycine induced current: −70 mV, no Mg2+
T2 sequence (Q14957 20-1233, other chains not shown): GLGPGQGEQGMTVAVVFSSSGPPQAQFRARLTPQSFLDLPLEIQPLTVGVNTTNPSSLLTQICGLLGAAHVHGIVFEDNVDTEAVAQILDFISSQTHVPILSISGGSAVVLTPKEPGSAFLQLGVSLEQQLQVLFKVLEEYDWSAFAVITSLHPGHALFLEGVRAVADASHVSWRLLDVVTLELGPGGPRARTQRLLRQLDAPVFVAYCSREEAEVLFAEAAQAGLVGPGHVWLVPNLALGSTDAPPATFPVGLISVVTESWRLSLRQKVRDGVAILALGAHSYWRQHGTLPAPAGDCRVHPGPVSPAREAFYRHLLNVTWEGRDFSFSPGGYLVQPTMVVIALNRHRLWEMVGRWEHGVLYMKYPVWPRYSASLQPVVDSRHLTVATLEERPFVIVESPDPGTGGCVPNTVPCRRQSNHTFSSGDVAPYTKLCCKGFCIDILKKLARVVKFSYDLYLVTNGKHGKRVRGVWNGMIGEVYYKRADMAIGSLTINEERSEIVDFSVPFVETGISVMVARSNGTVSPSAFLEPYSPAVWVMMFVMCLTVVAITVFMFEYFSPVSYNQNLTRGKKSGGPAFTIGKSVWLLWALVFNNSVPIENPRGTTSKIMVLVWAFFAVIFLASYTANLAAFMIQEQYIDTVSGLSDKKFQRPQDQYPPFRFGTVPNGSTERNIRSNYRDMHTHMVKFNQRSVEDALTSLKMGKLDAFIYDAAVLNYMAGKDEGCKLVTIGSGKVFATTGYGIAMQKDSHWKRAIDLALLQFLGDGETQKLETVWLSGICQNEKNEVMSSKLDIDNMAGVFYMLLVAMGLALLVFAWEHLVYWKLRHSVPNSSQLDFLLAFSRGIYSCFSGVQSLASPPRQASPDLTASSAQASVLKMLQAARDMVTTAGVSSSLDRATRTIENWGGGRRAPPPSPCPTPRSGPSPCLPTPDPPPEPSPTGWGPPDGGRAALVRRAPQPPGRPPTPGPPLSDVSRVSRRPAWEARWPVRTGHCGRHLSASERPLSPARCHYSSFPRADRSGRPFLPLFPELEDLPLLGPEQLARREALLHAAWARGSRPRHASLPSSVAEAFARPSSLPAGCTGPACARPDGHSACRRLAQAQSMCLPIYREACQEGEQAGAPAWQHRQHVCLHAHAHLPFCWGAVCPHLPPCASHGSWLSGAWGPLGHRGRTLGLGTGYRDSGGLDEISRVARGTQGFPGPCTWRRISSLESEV
Description: Manual patch clamp recordings occurred at −70 mV. […] Tau-on and tau-off were estimated by curve fitting to first order exponential equations.
Test items were evaluated using a manual patch clamp whole-cell recording methodology, using HEKA Elektronik Patchmaster system, coupled to BioLogic RSC-160 perfusion device (BioLogic, Seyssinet-Pariset, France).
hGluN1/hGluN2C-CHO cells grown on poly-D-lysine coated glass coverslips were studied by manual patch clamp whole cell recording. Extracellular and intracellular solutions for patch clamp recording had following composition:
(§6) Recordings occurred at −70 mV fixed voltage equal to holding potential.
Test item on-/off-rates were measured by curve fitting the development of their induced current block, or relief from it.
At least n=10 independent cells were analysed. […] Time constant of onset (tau-on, seconds) and offset (tau-off, seconds) of test item inhibition of glutamate induced current were calculated using first order exponential equations as shown below:
I(t)=I1+(I2−I1)×(1−e^−t/τoff)

[5] = biological target: T3, human NMDA receptor GluN1-GluN2C (Homo sapiens, UniProt Q05586+Q14957); experiment: FLIPR calcium assay, test item effect on L-glutamate CRC, GluN1-GluN2C-CHO; type: cell-based
T3 construct: expressed in transfected cells; host or cells: CHO
T3 sequence (Q14957 20-1233, other chains not shown): as above
Description: as §1, §2, §3, §4, §5

[6] = biological target: T2, human GluN1-GluN2C NMDA receptor; experiment: Manual patch clamp trapping assay, hGluN1/hGluN2C-CHO cells; details: test item 1 μM, hydrochloride
Description: Manual patch clamp recordings occurred at −70 mV.
hGluN1/hGluN2C-CHO cells grown on poly-D-lysine coated glass coverslips were studied by manual patch clamp whole cell recording.
as §6

[7] = biological target: T4, human NMDA receptor GluN1-GluN2D (Homo sapiens, UniProt O15399+Q05586); experiment: FLIPR calcium assay, test item effect on L-glutamate CRC, GluN1-GluN2D-CHO; type: cell-based
T4 construct: expressed in transfected cells; host or cells: CHO
Description: as §1, §2, §3, §4, §5

[8] = biological target: T5, human NMDA receptor GluN1-GluN2B (Homo sapiens, UniProt Q05586+Q13224); experiment: cell-based; type: cell-based
T5 construct: expressed in transfected cells; host or cells: CHO
T5 sequence (Q13224 27-1484, other chains not shown): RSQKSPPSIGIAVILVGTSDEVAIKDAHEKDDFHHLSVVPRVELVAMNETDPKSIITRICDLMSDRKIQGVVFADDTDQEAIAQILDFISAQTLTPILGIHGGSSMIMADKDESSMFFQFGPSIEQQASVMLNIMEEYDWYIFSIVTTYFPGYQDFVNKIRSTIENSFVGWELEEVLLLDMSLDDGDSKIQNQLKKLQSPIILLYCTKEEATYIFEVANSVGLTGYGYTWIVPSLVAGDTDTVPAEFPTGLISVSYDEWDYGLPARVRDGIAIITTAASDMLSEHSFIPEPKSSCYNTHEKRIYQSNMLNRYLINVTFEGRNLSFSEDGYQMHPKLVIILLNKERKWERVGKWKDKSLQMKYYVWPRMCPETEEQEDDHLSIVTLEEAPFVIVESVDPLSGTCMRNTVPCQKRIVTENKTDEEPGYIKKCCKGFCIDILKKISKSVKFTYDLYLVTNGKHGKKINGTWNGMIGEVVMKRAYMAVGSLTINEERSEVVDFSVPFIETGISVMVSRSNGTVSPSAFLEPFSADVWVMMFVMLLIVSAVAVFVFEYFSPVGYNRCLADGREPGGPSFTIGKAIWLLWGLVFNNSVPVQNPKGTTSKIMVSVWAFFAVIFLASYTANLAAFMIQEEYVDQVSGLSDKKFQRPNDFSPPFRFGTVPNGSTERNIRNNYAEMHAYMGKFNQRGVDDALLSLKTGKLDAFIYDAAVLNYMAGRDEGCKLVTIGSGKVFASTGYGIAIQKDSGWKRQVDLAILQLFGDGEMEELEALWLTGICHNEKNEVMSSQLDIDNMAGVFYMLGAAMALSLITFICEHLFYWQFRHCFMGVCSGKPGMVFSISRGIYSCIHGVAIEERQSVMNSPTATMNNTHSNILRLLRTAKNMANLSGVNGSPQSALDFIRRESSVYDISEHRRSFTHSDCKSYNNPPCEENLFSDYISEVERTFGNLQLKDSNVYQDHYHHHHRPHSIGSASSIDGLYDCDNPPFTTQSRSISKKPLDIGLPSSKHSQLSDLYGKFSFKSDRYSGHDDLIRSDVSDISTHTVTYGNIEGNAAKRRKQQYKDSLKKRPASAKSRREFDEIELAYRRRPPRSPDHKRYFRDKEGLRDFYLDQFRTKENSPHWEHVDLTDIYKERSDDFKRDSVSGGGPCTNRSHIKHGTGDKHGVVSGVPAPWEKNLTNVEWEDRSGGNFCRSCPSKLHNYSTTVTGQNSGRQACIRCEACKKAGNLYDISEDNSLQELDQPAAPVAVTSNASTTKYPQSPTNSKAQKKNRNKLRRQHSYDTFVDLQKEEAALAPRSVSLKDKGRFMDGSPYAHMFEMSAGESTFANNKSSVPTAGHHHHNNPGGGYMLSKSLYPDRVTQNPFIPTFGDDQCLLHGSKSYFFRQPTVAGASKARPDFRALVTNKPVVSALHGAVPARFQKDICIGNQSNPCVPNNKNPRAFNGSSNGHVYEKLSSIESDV
Description: as §1, §2, §3, §4, §5

[9] = highest affinity for a NMDAR subtype = 100%
[10] = operational analysis for allosteric modulators
[11] = 10 μM test item, offset fitting

Compound: CNC1(c2ccccc2Cl)CCCCC1=O (racemic) [(±)-Ketamine, (±)-ketamine hydrochloride]
- Kb [1]: 4300 nM
- % affinity ratio [1, 9]: 11%
- α, estimated cooperativity term [1, 10]: 0.17
- L-glutamate CRC HillSlope ([1]; with test item 49 nM): 1.2
- L-glutamate CRC LogEC50 ([1]; with test item 49 nM): −6.5
- L-glutamate CRC HillSlope ([1]; with test item 195 nM): 1.2
- L-glutamate CRC LogEC50 ([1]; with test item 195 nM): −6.5
- L-glutamate CRC HillSlope ([1]; with test item 781 nM): 1.0
- L-glutamate CRC LogEC50 ([1]; with test item 781 nM): −6.4
- L-glutamate CRC HillSlope ([1]; with test item 3.1 μM): 1.1
- L-glutamate CRC LogEC50 ([1]; with test item 3.1 μM): −6.4
- L-glutamate CRC HillSlope ([1]; with test item 12.5 μM): 1.3
- L-glutamate CRC LogEC50 ([1]; with test item 12.5 μM): −6.4
- L-glutamate CRC HillSlope ([1]; with test item 50 μM): 1.9
- L-glutamate CRC LogEC50 ([1]; with test item 50 μM): −6.2
- trapping [2]: 86.0%
- profile on L-glutamate CRC [3]: insurmountable profile
- % Current (mean ± SEM) ([4]; 0.3 μM test item): 44.2 ± 3.0%
- % Current (mean ± SEM) ([4]; 1 μM test item): 74.6 ± 2.2%
- I1 (% current) ([4]; 1 μM test item, offset fitting): 28.5 % current
- Tau-off ([4]; 1 μM test item, offset fitting): 151.0 s
- I2 (% current) ([4]; 1 μM test item, offset fitting): 95.5 % current
- Tau-on ([4]; 1 μM test item, onset fitting): 47.1 s
- I1 (% current) ([4]; 1 μM test item, onset fitting, current after 30 seconds application of test item): 28.7 % current
- % Current (mean ± SEM) ([4]; 3 μM test item): 89.7 ± 0.6%
- I1 (% current) [4, 11]: 4.9 % current
- Tau-off [4, 11]: 163.2 s
- I2 (% current) [4, 11]: 102.9 % current
- Tau-on ([4]; 10 μM test item, onset fitting): 9.9 s
- I1 (% current) ([4]; 10 μM test item, onset fitting, current after 30 seconds application of test item): 3.6 % current
- % block of 10/10 μM L-glutamate/glycine induced current ([4]; test item 0.3 μM, hydrochloride): 44% and 44.2%±3.0% and 44.2%
- tau-off, mean of single trace fittings ([4]; test item 1 μM): 151.7 ± 6.3 s
- tau-on ([4]; test item 1 μM): 47.1 s
- tau-on, average of single trace fittings ([4]; test item 1 μM): 47.3 ± 1.4 s
- tau-off ([4]; test item 1 μM, hydrochloride): 151 s
- tau-off ([4]; test item 1 μM, listed as (±)-ketamine, hydrochloride): 151.0 s
- % block of 10/10 μM L-glutamate/glycine induced current ([4]; test item 1 μM, hydrochloride): 74.6%±2.2% and 75% and 74.6%
- % block of 10/10 μM L-glutamate/glycine induced current ([4]; test item 3 μM, hydrochloride): 90% and 89.7%±0.6% and 89.7%
- tau-off ([4]; test item 10 μM): 163.2 s
- tau-on ([4]; test item 10 μM): 9.9 s
- % block of 10/10 μM L-glutamate/glycine induced current ([4]; test item 10 μM, hydrochloride): 97.2%±0.3% and 97% and 97.2%
- Kb [5]: 460 nM
- potency with respect to dextromethadone ([5]; from the FLIPR study (Example 1)): ~10 fold
- % affinity ratio [5, 9]: 100%
- α, estimated cooperativity term [5, 10]: 0.13
- L-glutamate CRC HillSlope ([5]; with test item 49 nM): 1.5
- L-glutamate CRC LogEC50 ([5]; with test item 49 nM): −6.9
- L-glutamate CRC HillSlope ([5]; with test item 195 nM): 1.5
- L-glutamate CRC LogEC50 ([5]; with test item 195 nM): −6.8
- L-glutamate CRC HillSlope ([5]; with test item 781 nM): 1.3
- L-glutamate CRC LogEC50 ([5]; with test item 781 nM): −6.6
- L-glutamate CRC HillSlope ([5]; with test item 3.1 μM): 1.2
- L-glutamate CRC LogEC50 ([5]; with test item 3.1 μM): −6.6
- L-glutamate CRC HillSlope ([5]; with test item 12.5 μM): 2.0
- L-glutamate CRC LogEC50 ([5]; with test item 12.5 μM): −6.7
- L-glutamate CRC HillSlope ([5]; with test item 50 μM): 2.5
- L-glutamate CRC LogEC50 ([5]; with test item 50 μM): −6.4
- Block trapped (BT), trapping [6]: 86.7%
- Block (B) of 10/10 μM L-glutamate/glycine-evoked currents ([6]; listed as (±)-ketamine): 74.0%±1.2% and 74.0%
- Block trapped (BT), trapping ([6]; listed as (±)-ketamine): 86.7%±1.8% and 86.7%
- Residual block (BR) ([6]; listed as (±)-ketamine): 64.1%±1.3% and 64.1%
- Kb [7]: 1400 nM
- % affinity ratio [7, 9]: 33%
- α, estimated cooperativity term [7, 10]: 0.15
- L-glutamate CRC HillSlope ([7]; with test item 49 nM): 1.6
- L-glutamate CRC LogEC50 ([7]; with test item 49 nM): −7.4
- L-glutamate CRC HillSlope ([7]; with test item 195 nM): 1.5
- L-glutamate CRC LogEC50 ([7]; with test item 195 nM): −7.3
- L-glutamate CRC HillSlope ([7]; with test item 781 nM): 1.4
- L-glutamate CRC LogEC50 ([7]; with test item 781 nM): −7.2
- L-glutamate CRC HillSlope ([7]; with test item 3.1 μM): 1.8
- L-glutamate CRC LogEC50 ([7]; with test item 3.1 μM): −7.1
- L-glutamate CRC HillSlope ([7]; with test item 12.5 μM): 1.6
- L-glutamate CRC LogEC50 ([7]; with test item 12.5 μM): −6.9
- L-glutamate CRC HillSlope ([7]; with test item 50 μM): 2.0
- L-glutamate CRC LogEC50 ([7]; with test item 50 μM): −6.7
- % affinity ratio [8]: 42%
- Kb [8]: 1100 nM
- α, estimated cooperativity term [8]: 0.14
- L-glutamate CRC HillSlope ([8]; hydrochloride): 2.0 and 1.4 and 1.1 and 1.2
